Data on seven compounds can be found in ChEMBL document CHEMBL1201862, “PubChem BioAssay data set” (2004).

A short description of assay [1]: cytotoxicity toward DRD oncogenic fibroblasts, dose response, cell-based, non-viral oncogenic, luminescence (AID 1934). Type of assay: functional. The settings on record: Homo sapiens.
A short description of assay [2]: growth suppression of beta-catenin-knockout colon cells, dose response, cell-based, HCT116, human colon tumor (AID 1045).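 Note: HCT116 colon tumor cells with beta catenin knocked out; cells exposed to compound for 60 hours.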 Type of assay: functional.
Assay [3] relates to BJ. Put plainly: cytotoxicity toward Ras-transformed BJeLR fibroblasts, dose response, cell-based, alamar blue fluorescence, cherrypicked samples (AID 2631).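 Note: confirmatory dose-response assay in RAS-dependent BJ fibroblasts engineered with TERT, LT and ST, with cytotoxicity read by fluorescence.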 Type of assay: functional. The settings on record: Homo sapiens. For orientation: Resazurin is reduced to fluorescent resorufin, in cell work by metabolically active cells.
Assay [4] concerns BJ. Put plainly: cytotoxicity toward BJ-TERT-LT-ST fibroblasts, dose response, cell-based, RAS-independent, luminescence (AID 1935).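 Note: BJ fibroblasts immortalized with TERT plus LT and ST oncogenes.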 Type of assay: functional. The settings on record: Homo sapiens.
Assay [5] has as its system BJ. The experiment in a line: cytotoxicity toward BJ-TERT fibroblasts, dose response, cell-based, RAS-independent, luminescence (AID 1933). The class given is functional. The settings on record: Homo sapiens.
The subject of assay [6] is BJ. Put plainly: cells. Type of assay: functional, cell-based. The settings on record: Homo sapiens.
Assay [7] can be described thus: growth suppression of PTEN-null colon cells, dose response, cell-based, HCT116 PTEN knockout (AID 1047).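 Note: HCT116 colon tumor cells with PTEN knocked out; cells exposed to compound for 60 hours before readout; potency for loss of cell viability measured by luminescence.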 The class given is functional.
Assay [8] deals with T1, Type-1 angiotensin II receptor (Homo sapiens, UniProt P30556).
T1 sequence (P30556 whole entry): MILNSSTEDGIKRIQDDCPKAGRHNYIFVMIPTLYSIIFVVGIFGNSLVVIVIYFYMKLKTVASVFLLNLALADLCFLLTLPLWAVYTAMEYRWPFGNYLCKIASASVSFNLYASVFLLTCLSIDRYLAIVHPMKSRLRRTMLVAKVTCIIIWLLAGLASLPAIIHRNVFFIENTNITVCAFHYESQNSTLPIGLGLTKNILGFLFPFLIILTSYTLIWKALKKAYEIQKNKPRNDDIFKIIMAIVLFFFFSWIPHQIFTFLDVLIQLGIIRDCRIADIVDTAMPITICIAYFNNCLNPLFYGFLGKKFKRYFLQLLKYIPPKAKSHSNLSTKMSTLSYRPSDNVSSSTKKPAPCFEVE
Put plainly: AT1 receptor antagonists, dose response, selectivity assay for APJ receptor antagonist project, cell-based, uHTS hits (AID 463214).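 Note: antagonist potency against angiotensin II stimulated AT1 response.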 The class given is functional.

In a further assay the target is Beta-galactosidase (Escherichia coli, UniProt Q8VNN2). The experiment in a line: PubChem AID 485352. Type of assay: functional.
Beta-galactosidase, sequence (Q8VNN2 whole entry): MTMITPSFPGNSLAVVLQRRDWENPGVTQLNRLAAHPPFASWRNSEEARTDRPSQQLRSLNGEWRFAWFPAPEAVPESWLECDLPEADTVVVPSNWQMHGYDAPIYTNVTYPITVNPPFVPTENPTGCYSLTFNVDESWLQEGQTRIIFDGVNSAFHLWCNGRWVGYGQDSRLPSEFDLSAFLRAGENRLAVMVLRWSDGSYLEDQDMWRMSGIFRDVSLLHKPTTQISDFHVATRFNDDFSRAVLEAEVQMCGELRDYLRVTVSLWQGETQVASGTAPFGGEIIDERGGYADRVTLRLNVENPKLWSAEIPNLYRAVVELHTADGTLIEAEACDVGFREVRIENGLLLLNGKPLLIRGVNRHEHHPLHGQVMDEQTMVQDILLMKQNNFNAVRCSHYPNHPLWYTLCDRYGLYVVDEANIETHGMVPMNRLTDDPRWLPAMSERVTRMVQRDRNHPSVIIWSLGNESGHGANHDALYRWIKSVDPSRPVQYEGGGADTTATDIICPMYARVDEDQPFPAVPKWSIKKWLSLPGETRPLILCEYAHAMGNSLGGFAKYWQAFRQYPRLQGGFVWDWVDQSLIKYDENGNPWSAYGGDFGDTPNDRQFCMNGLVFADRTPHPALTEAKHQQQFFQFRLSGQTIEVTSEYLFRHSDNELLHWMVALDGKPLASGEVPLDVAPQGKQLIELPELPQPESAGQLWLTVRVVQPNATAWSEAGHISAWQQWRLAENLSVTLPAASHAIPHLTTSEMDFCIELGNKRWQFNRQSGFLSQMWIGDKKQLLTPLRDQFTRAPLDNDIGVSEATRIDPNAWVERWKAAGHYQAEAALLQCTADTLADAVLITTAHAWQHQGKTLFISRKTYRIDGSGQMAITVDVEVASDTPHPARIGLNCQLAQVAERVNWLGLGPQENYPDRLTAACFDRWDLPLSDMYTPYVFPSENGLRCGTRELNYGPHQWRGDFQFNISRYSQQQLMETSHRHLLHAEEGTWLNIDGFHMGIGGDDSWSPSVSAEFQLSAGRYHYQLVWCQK
The nature of assay [9]: HEp-2 cell cytotoxicity, dose response, cytotoxicity control for RSV inhibitor project, HTS (AID 2410). The class given is functional. The settings on record: human respiratory syncytial virus.
A further assay concerns the target Cytochrome P450 3A4 (Homo sapiens, UniProt P08684).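 Note: CYP3A4 tested as one member of a cytochrome P450 panel screen.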
Assay [10] concerns the target T2, Replicative DNA helicase DnaB (Mycobacterium tuberculosis, UniProt P9WMR3).
T2 sequence (P9WMR3 whole entry): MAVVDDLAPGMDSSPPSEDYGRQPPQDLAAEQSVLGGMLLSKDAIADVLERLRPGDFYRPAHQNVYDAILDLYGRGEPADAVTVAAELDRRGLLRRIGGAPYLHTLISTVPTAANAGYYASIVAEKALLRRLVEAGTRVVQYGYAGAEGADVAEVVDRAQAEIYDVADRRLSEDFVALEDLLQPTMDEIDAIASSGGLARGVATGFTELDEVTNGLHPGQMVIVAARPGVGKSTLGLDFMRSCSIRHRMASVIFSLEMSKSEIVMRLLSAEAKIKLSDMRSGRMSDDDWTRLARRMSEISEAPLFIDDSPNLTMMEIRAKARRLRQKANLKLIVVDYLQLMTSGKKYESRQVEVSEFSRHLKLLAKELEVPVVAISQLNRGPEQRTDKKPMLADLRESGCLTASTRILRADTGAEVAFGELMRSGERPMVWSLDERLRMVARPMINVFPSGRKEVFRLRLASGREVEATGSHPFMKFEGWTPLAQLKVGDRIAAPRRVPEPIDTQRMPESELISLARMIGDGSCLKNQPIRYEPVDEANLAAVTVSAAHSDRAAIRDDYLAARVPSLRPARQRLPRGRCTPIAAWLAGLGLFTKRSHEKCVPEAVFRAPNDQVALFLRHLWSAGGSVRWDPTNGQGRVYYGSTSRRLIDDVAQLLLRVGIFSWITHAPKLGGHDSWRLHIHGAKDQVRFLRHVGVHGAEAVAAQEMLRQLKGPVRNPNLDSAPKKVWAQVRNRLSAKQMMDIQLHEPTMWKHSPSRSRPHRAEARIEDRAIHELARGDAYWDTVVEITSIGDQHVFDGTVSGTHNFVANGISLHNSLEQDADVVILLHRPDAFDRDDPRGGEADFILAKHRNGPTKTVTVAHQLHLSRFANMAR
The experiment in a line: DnaB intein splicing inhibitors, dose response, biochemical, cell-free fluorescence (AID 449749). Type of assay: functional.

For the next assay, the target named is T3, Protein RecA (Mycobacterium tuberculosis, UniProt P9WHJ3).
T3 sequence (P9WHJ3 whole entry): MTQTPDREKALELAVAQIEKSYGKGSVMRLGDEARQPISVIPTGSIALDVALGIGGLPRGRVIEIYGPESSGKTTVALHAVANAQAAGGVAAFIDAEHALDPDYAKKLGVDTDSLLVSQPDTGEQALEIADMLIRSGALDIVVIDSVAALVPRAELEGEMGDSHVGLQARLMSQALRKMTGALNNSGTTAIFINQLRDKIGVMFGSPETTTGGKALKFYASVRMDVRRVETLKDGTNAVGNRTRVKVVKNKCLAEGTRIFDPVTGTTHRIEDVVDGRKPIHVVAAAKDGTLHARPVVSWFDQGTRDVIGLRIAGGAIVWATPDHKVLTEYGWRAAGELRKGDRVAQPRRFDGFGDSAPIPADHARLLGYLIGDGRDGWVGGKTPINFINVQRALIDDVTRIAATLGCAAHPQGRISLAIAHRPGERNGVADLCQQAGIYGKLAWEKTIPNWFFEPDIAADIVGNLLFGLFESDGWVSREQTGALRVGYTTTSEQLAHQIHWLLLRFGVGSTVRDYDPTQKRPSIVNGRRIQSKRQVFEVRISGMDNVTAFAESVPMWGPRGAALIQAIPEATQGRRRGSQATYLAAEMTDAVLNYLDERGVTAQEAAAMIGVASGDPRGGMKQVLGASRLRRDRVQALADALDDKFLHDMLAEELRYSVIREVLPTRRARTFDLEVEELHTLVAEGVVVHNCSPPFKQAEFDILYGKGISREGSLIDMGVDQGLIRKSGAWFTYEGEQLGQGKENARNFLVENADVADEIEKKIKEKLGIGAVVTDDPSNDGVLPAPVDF
Put plainly: Fluorescence Cell-Free Homogeneous Dose Retest to Identify Inhibitors of RecA-Intein Splicing Activity. [Related pubchem assays (depositor defined):AID2097, AID2223, AID489010, AID492950]. Type of assay: functional.

The next assay deals with Streptococcus. Put plainly: Group A Streptococcus viability loss, dose response, counter-screen for streptokinase expression inhibitor project, luminescence, BacTiterGlo (AID 1915).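 Note: potency for reduction of bacterial viability or growth.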 Type of assay: functional, organism-based.
In a further assay the test system is INS1. The experiment in a line: beta cell apoptosis inhibitors, cytokine rescue, dose response, luminescence, retest (AID 449756).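 Note: cell death triggered by IL-1 beta plus TNF-alpha plus IFN-gamma mixture; protective hits raise ATP signal compared with cytokine alone wells.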 The class given is functional, cell-based. The settings on record: Rattus norvegicus.
The subject of assay [11] is Streptococcus sp. 'group A'. Put plainly: growth inhibition of control SK(-) GAS strain, dose response, counter-screen for streptokinase expression inhibitor project, luminescence, kanamycin, BacTiterGlo, confirmation (AID 1900). Type of assay: functional, organism-based. A general note: The purpose of a counterscreen is to sort out artefacts and off-target activity.

Assay [12] in a line: inhibitors of firefly luciferase expression or activity, dose response, H4 neuroglioma cells, luminescence (AID 1990). Type of assay: functional, cell-based.
Assay [13] in a line: Luminescence Cell-Based Dose Response HTS to Identify Inhibitors of 5'UTR Stem-Loop Driven Prion Protein mRNA Translation in H4 Neuroglioblastoma Cells. [Related pubchem assays: 1827 (Project Summary), 1813 (Primary HTS)]. Type of assay: functional.
For a further assay, the system named is HEK293. Put plainly: inhibitors of LMP1-driven NF-kB reporter, dose response, cell-based, HEK293, luciferase, cherry-pick (AID 588343). Type of assay: functional. Conditions: Homo sapiens.
The nature of assay [14]: inhibitors of SNCA 5'UTR-driven reporter translation, confirmation, H4 neuroglioma cells, luminescence (AID 1988). Type of assay: functional, cell-based.

Structures are written as SMILES. Activity calls are given as the source filed them. Cut-off read from the data, not from the text of the source, for most assays here: actives have a measured EC50 and inactives only a lower limit.

Cytochrome P450 3A4, sequence (P08684 whole entry): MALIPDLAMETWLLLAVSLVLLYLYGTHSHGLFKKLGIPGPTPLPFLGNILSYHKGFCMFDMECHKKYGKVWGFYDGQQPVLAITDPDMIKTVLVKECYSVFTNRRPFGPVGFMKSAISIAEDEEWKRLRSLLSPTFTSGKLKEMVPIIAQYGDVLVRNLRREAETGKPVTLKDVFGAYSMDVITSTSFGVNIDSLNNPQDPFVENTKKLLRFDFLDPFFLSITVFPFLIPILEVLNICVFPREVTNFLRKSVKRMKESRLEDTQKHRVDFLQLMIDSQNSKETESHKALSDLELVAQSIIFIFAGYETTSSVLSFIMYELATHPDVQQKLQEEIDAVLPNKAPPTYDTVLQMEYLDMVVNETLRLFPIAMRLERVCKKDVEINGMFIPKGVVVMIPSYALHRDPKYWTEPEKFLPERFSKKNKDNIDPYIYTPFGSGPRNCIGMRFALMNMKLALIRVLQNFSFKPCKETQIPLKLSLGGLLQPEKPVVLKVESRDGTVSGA

One may read the EC50 as the concentration at which the effect is half-maximal. As for `CCCCc1c(C)c(C#N)c2nc3ccccc3n2c1Cl`, the EC50 was 2.76 µM (active) in assay [1]; 1.52 µM (active) in assay [2]; 0.57 µM (active) with BJ [3]; 1.75 µM (inconclusive) in the assay on BJ [4]; 2.22 µM (active) in the assay on BJ [5]; 2.85 µM (active) in the assay with BJ [6]. The EC50 in [7] is 1.88 µM (active).

One may read the IC50 as the concentration at which inhibition is half-maximal. Turning to `O=C1Nc2ccccc2/C1=N/c1ccc(Br)cc1`, the IC50 in [8] is 7.4 µM (active). Besides, on Beta-galactosidase, the EC50 was > 40 µM (inactive).

The CC50 is the concentration that lowers cell viability or growth by half. In the case of `COc1cc([C@H]2c3[nH]c4ccccc4c3C[C@H]3C(=O)N4[C@@H](c5cc(OC)c(OC)c(OC)c5)c5[nH]c6ccccc6c5C[C@H]4C(=O)N23)cc(OC)c1OC`, the EC50 is 5.02 µM (active) in assay [1]; > 133 µM (inactive) with BJ [3]; 14.3 µM (inconclusive) with BJ [4]; 3.48 µM (active) in the assay on BJ [5]; > 150 µM (inconclusive) with BJ [6]. In [9], the CC50 was 19.1 µM (active).

By AC50 is commonly meant the concentration giving half of the maximal activity seen. With `Cc1ccc(C(=O)COC(=O)CNC(=O)C(c2ccccc2)c2ccccc2)cc1[N+](=O)[O-]`, the AC50 at Cytochrome P450 3A4 is 15.8 µM (inconclusive). The IC50 in assay [8] is 29.5 µM (not active). In addition, the EC50 on Beta-galactosidase is > 40 µM (inactive).

As to `CCOc1ccc(NC2=c3c(Br)c(C)ccc3=NC2=O)cc1`, in [8], the IC50 was 7.77 µM (active). Moreover, the EC50 at Beta-galactosidase was > 40 µM (inactive).

Take `Cc1ccc(C2=NN(C(=O)CCl)C(c3ccco3)C2)o1` (stereo not drawn): the EC50 in assay [1] is 5.27 µM (active); in the assay on BJ [3], 3.42 µM (active); in the assay with BJ [4], 11.1 µM (inconclusive); on Protein RecA it was 5.58 µM (active); in the assay with BJ [5] it was 3.33 µM (inconclusive). Further, in assay [10], the AC50 is 30.3 µM (active).

With `Cc1[nH]n(-c2ccc(Br)cc2)c(=O)c1/C=N/NC(=O)c1ccccc1`, the EC50 was 1.92 µM (active) with Streptococcus; 0.593 µM (active) in assay [11]; 7.9 µM (active) in assay [12]; 26.6 µM (active) in assay [13]; 0.889 µM (active) in assay [14]. The AC50 in the assay on INS1 was 0.898 µM (active); in the assay with HEK293 it was 3.72 µM (active).
